Data as given in ChEMBL document CHEMBL5380833 (J Med Chem, 2023).
Active and inactive are the calls of the source. The rule behind the calls is not given here.

Experiments:
[1] = target: T1, Protein cereblon/Tyrosine-protein kinase ITK/TSK (Homo sapiens, UniProt Q08881+Q96SW2); assay: PROTAC activity at CRBN/ITK in human Jurkat cells assessed as induction of ITK degradation by Western blot analysis; format: cell-based; details: read-out: EC50
Target sequence in this assay (Q08881 whole entry): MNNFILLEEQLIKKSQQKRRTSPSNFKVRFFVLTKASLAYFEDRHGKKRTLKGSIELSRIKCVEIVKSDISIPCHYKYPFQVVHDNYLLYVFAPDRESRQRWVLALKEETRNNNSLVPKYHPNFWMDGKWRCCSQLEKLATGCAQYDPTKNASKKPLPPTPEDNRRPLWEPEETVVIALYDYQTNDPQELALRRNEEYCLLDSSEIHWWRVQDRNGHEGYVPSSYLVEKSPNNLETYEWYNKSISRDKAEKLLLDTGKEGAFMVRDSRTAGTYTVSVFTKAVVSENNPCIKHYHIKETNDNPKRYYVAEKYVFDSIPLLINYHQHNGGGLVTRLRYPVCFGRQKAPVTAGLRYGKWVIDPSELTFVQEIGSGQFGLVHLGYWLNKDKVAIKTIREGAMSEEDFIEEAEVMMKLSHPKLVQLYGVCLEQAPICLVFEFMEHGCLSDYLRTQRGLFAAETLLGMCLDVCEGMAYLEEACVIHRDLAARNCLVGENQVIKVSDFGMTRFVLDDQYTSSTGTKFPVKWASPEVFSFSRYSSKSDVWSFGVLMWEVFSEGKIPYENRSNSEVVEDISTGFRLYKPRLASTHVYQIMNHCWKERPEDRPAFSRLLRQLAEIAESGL
Target sequence in this assay (Q96SW2 whole entry): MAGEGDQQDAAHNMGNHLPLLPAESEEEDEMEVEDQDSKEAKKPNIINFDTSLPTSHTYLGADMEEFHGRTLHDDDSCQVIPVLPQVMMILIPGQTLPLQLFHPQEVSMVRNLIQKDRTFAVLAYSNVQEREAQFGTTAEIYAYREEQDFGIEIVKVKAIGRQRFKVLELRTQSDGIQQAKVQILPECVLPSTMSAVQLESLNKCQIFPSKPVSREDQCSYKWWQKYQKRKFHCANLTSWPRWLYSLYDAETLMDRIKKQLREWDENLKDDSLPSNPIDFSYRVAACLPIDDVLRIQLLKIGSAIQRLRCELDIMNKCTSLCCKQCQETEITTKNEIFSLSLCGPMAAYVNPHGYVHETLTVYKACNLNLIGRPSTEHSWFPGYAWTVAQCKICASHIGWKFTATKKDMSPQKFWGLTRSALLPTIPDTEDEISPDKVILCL

[2] = target: T2, Protein cereblon/Tyrosine-protein kinase ITK/TSK (Mus musculus) (UniProt Q8C7D2+Q03526); assay: PROTAC activity at CRBN/ITK in Balc/c mouse Primary splenic cell assessed as maximum degradation at 0.32 to 5000 nM by immunoblotting analysis relative to control; format: cell-based; details: dose 0.32-5000 nM
[3] = AUC (0 to t) in Balb/c mouse at 5 mg/kg, iv measured upto 24 hrs by LC-MS/MS analysis; format: ADME, organism-based; design: dose 5 mg/kg, time < 24 hrs, route iv; details: in vivo
[4] = AUC (0 to t) in Balb/c mouse at 10 mg/kg, ip measured upto 24 hrs by LC-MS/MS analysis; format: ADME, organism-based; design: time < 24 hrs, dose 10 mg/kg, route ip; details: in vivo
[5] = Clearance in Balb/c mouse at 5 mg/kg, iv measured upto 24 hrs by LC-MS/MS analysis; format: ADME, organism-based; details: in vivo
Jurkat [6] = assay: Effect on IKZF3 expression in human Jurkat cells at 100 nM measured after 8 hrs by proteomics analysis; format: functional, cell-based
[7] = Half life in Balb/c mouse at 5 mg/kg, iv measured upto 24 hrs by LC-MS/MS analysis; format: ADME, organism-based; details: in vivo
[8] = MRT last in Balb/c mouse at 10 mg/kg, ip measured upto 24 hrs by LC-MS/MS analysis; format: ADME, organism-based; details: in vivo
[9] = target: T2, Protein cereblon/Tyrosine-protein kinase ITK/TSK (Mus musculus); assay: In vivo PROTAC activity at CRBN/ITK xenografted in Balb/c mouse peripheral blood assessed as prolongation of ITK degradation at 20 mg/kg, ip measured for 2 to 16 hrs by Western blot analysis; format: functional, organism-based; details: time 2-16 hrs
[10] = target: T2, Protein cereblon/Tyrosine-protein kinase ITK/TSK (Mus musculus); assay: In vivo PROTAC activity at CRBN/ITK xenografted in Balb/c mouse spleen assessed as prolongation of ITK degradation at 20 mg/kg, ip measured for 2 to 16 hrs by Western blot analysis; format: functional, organism-based; details: time 2-16 hrs
Interleukin-2 = Interleukin-2 (Homo sapiens, UniProt P60568); assay: Inhibition of IL-2 in human Jurkat cells pretreated with compound for 4 hrs followed by anti-CD3/CD28 stimulation by ELISA analysis; format: cell-based
[11] = Cmax in Balb/c mouse at 5 mg/kg, iv measured upto 24 hrs by LC-MS/MS analysis; format: ADME, organism-based; design: time < 24 hrs, dose 5 mg/kg, route iv; details: in vivo
[12] = target: T2, Protein cereblon/Tyrosine-protein kinase ITK/TSK (Mus musculus); assay: In vivo PROTAC activity at CRBN/ITK xenografted in Balb/c mouse assessed as reduction in cytokine IL-2 production at 25 mg/kg, ip preincubated for 6 hrs followed by abti-CD3 stimulation and measured after 1.5 hrs by ELISA method relative to control; format: functional, organism-based; design: scale not given: the % may be the effect or the level left; details: time 7.5 hrs
[13] = Toxicity in Balb/c mouse assessed as drug tolerance at 10 mg/kg, ip measured upto 24 hrs by LC-MS/MS analysis; format: organism-based; details: in vivo
[14] = Toxicity in Balb/c mouse assessed as side effects at 10 mg/kg, ip measured upto 24 hrs by LC-MS/MS analysis; format: organism-based; details: in vivo
[15] = Volume of distribution at steady state in Balb/c mouse at 10 mg/kg, ip measured upto 24 hrs by LC-MS/MS analysis; format: ADME, organism-based; details: in vivo
[16] = Toxicity in Balb/c mouse assessed as drug tolerance at 5 mg/kg, iv measured upto 24 hrs by LC-MS/MS analysis; format: organism-based; details: in vivo
[17] = Volume of distribution at steady state in Balb/c mouse at 5 mg/kg, iv measured upto 24 hrs by LC-MS/MS analysis; format: ADME, organism-based; details: in vivo, read-out: Vdss
[18] = Half life in Balb/c mouse at 10 mg/kg, ip measured upto 24 hrs by LC-MS/MS analysis; format: ADME, organism-based; details: in vivo
[19] = Cmax in Balb/c mouse at 10 mg/kg, ip measured upto 24 hrs by LC-MS/MS analysis; format: ADME, organism-based; design: dose 10 mg/kg, time < 24 hrs, route ip; details: in vivo
[20] = target: T1, Protein cereblon/Tyrosine-protein kinase ITK/TSK; assay: PROTAC activity at CRBN/ITK in human Jurkat cells assessed as downregulation of ITK protein by measuring fold change at 100 nM measured after 8 hrs; format: cell-based
Target sequence in this assay (Q08881 whole entry, looked up): as the sequence (Q08881 whole entry) above
Target sequence in this assay (Q96SW2 whole entry, looked up): as the sequence (Q96SW2 whole entry) above

[21] = AUC (0 to infinity) in Balb/c mouse at 5 mg/kg, iv measured upto 24 hrs by LC-MS/MS analysis; format: ADME, organism-based; design: time < 24 hrs, dose 5 mg/kg, route iv; details: in vivo
[22] = Toxicity in Balb/c mouse assessed as side effects at 5 mg/kg, iv measured upto 24 hrs by LC-MS/MS analysis; format: organism-based; details: in vivo
[23] = target: T1, Protein cereblon/Tyrosine-protein kinase ITK/TSK; assay: PROTAC activity at CRBN/ITK in human Jurkat cells assessed as maximum degradation at 0.01 to 10 uM by Western blot analysis relative to control; format: cell-based; details: dose 0.01-10 µM
Target sequence in this assay (Q08881 whole entry, looked up): as the sequence (Q08881 whole entry) above
Target sequence in this assay (Q96SW2 whole entry, looked up): as the sequence (Q96SW2 whole entry) above

[24] = AUC (0 to infinity) in Balb/c mouse at 10 mg/kg, ip measured upto 24 hrs by LC-MS/MS analysis; format: ADME, organism-based; design: dose 10 mg/kg, time < 24 hrs, route ip; details: in vivo
[25] = target: T2, Protein cereblon/Tyrosine-protein kinase ITK/TSK (Mus musculus); assay: (§1) PROTAC activity at CRBN/ITK in Balc/c mouse Primary splenic cell assessed as ITK degradation by immunoblotting analysis; format: cell-based; details: dose 0.32-5000 nM
[26] = target: T3, Protein cereblon/Tyrosine-protein kinase ITK/TSK (Mus musculus, UniProt Q8C7D2+Q03526); assay: as §1; format: cell-based
T3 sequence (Q8C7D2 whole entry): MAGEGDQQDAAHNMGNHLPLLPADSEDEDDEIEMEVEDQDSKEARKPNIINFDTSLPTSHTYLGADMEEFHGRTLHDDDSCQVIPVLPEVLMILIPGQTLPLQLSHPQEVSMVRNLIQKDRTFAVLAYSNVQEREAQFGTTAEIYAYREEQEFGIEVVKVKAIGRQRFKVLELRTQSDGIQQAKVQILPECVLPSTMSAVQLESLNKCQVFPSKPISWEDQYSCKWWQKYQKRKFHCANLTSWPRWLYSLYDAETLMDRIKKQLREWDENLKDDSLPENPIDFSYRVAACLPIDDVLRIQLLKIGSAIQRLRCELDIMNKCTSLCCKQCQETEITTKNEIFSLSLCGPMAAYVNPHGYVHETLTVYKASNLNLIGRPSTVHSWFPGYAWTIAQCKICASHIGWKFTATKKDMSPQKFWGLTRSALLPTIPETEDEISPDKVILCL
T3 sequence (Q03526 whole entry): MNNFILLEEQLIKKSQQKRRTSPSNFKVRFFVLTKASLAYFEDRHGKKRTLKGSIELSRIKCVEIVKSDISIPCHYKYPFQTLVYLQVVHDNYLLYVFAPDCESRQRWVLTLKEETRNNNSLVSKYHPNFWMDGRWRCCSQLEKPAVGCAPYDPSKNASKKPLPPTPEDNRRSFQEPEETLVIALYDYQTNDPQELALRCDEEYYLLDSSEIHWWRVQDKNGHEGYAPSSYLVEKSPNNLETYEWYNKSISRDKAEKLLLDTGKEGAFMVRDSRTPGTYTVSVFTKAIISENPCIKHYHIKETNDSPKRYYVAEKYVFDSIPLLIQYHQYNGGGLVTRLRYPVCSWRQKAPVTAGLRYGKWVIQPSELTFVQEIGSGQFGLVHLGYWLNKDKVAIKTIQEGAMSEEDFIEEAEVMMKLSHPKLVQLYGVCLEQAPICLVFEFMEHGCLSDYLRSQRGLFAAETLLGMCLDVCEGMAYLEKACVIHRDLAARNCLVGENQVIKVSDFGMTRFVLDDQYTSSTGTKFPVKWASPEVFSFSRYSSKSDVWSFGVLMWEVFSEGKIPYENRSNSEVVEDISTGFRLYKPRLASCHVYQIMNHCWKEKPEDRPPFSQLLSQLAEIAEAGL

[27] = Bioavailability in Balb/c mouse at 10 mg/kg, ip measured upto 24 hrs by LC-MS/MS analysis; format: ADME, organism-based; details: in vivo
Jurkat [28] = assay: Effect on IKZF1 expression in human Jurkat cells at 100 nM measured after 8 hrs by proteomics analysis; format: functional, cell-based
[29] = Clearance in Balb/c mouse at 10 mg/kg, ip measured upto 24 hrs by LC-MS/MS analysis; format: ADME, organism-based; details: in vivo
[30] = MRT last in Balb/c mouse at 5 mg/kg, iv measured upto 24 hrs by LC-MS/MS analysis; format: ADME, organism-based; details: Balb/c, in vivo
Jurkat [31] = assay: Effect on GSPT1 expression in human Jurkat cells at 100 nM measured after 8 hrs by proteomics analysis; format: functional, cell-based
Jurkat [32] = assay: Effect on CK1alpha expression in human Jurkat cells at 100 nM measured after 8 hrs by proteomics analysis; format: functional, cell-based

Sequence of Interleukin-2 (P60568 whole entry): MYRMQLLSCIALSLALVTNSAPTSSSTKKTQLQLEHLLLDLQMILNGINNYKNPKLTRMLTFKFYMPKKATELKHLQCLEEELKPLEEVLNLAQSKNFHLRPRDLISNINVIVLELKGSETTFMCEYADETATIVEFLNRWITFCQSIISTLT

For CC1(C)CCc2c(C(=O)Nc3cnn([C@@H](CCN4CCN(CCC5CCN(c6ccc7c(c6)C(=O)N(C6CCC(=O)NC6=O)C7=O)CC5)CC4)c4ccccc4)c3)n[nH]c2C1.O=C(O)C(F)(F)F (stereo partly drawn), the EC50 [1] was 3.6 nM, the Emax [2] was > 99% and the AUC(0-t) at 24 h [3] was 15100 ng·h/mL. The AUC(0-t) at 24 h [4] was 25900 ng·h/mL, the clearance [5] was 5.4 mL/min/kg and the Activity (Jurkat [6]) was “inactive”. The half-life [7] was 4.39 h, the MRT last at 24 h [8] was 5.84 h and the Activity [9] was “Active”. The Activity [10] was “Active”, the EC50 (Interleukin-2) was 35.2 nM and the Cmax [11] was 4910 ng/mL. The Activity [12] was 70%, the Activity [13] was “Non-Toxic” and the Activity [14] was “Non-Toxic”. For the same compound, the Vdss [15] was 3.06 L/kg, the Activity [16] was “Non-Toxic” and the Vd [17] was 2.06 L/kg. The half-life [18] was 5.75 h, the Cmax [19] was 3420 ng/mL and the fold change (FC) [20] was 0.37. For the same compound, the AUC(0-inf) [21] was 15400 ng·h/mL, the Activity [22] was “Non-Toxic” and the Emax [23] was 95%. For the same compound, the AUC(0-inf) [24] was 27300 ng·h/mL, the Activity [25] was “Dose-Dependent Effect” and the DC50 [26] was 2.1 nM. The bioavailability [27] was 88.4%, the Activity (Jurkat [28]) was “inactive” and the CL/F [29] was 6.1 mL/min/kg. For the same compound, the MRT last at 24 h [30] was 4.42 h, the Activity (Jurkat [31]) was “inactive” and the Activity (Jurkat [32]) was “inactive”.
